Consider eleven compounds from patent US20150011466A1, “APJ Receptor Compounds” (priority 2012, published 2015).

One series deals with T1, APJ receptor (Homo sapiens, UniProt P35414).
T1 construct: expressed in transfected cells; host or cells: Human TRex cells (doxycycline-inducible)
T1 sequence (P35414 1-380): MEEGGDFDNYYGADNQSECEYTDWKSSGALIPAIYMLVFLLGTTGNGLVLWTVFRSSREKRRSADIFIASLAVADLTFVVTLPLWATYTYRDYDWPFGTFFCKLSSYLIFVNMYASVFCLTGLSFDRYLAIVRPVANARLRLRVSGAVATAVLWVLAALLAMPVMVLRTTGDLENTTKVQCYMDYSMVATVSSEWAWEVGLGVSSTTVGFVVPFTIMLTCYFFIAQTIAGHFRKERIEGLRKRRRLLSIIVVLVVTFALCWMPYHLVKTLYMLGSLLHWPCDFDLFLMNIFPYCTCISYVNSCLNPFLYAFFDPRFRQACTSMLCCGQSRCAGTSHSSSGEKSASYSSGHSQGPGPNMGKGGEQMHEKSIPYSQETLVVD
The series is described as follows: HTRF cAMP assay, inhibition of NKH477 stimulated cAMP in Human TRex cells expressing APJ upon doxycycline induction (APJ-hTREX). Conditions: for Ranking: class combining EC50 and % histamine; for percent intrinsic activity at 0.3 µM: read-out: % IA (@ 300 nM). The format is cell-based. The gist of the method: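 Cells stimulated with NKH477 and cAMP measured by HTRF competitive immunoassay (cryptate anti-cAMP antibody, d2-labeled cAMP). APJ-hTREX cells induced with […] doxycycline and seeded overnight at 40 k/well.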
On the technique in general: TR-FRET usually uses a lanthanide donor and a delayed reading to cut background.

Each structure is given as a SMILES string. Like-named read-outs stand apart in the source and are kept apart here. Where a SMILES comes first, the peptide text is derived from it. [ ]: non-standard residue; d: D form. The star is where a group is joined. Palmitoyl = CCCCCCCCCCCCCCCC(=O)*; Aib = CC(C)(N)C(=O)O

On to `CCCCCCCCCCCCCCCC(=O)N[C@H](C(=O)N[C@H](C(=O)N[C@@H](Cc1ccccc1)C(=O)NC(C)(C)C(=O)N[C@@H](CO)C(=O)N[C@@H](CO)C(=O)N[C@@H](CCC(=O)O)C(=O)N[C@H](CCCCN)C(=O)N[C@@H](CCCNC(=N)N)C(=O)N[C@@H](CCCNC(=N)N)C(=O)N[C@@H](CO)C(=O)N[C@@H](C)C(=O)N[C@@H](CC(=O)O)C(=O)N[C@H](C(=O)N[C@@H](Cc1ccccc1)C(=O)N[C@H](C(N)=O)[C@@H](C)CC)[C@@H](C)CC)C(C)C)[C@@H](C)O` [Compound 58] (Palmitoyl-TVF[Aib]SSE[dK]RRSADIFI-NH2; C-terminus assumed), for which, at APJ receptor, the EC50 worked out at 10000 nM; the Ranking result was “* (EC50>500 nM and % histamine>35%)”; the percent intrinsic activity at 0.3 µM is 54%. Besides, the “Histimine (% vs. 48/40)” value in “Histimine (% vs. 48/40)” is reported as 11%.

Consider `CCCCCCCCCCCCCCCC(=O)N[C@H](C(=O)N[C@H](C(=O)N[C@@H](Cc1ccccc1)C(=O)N[C@@H](CCCNC(=N)N)C(=O)N[C@@H](CO)C(=O)N[C@@H](CO)C(=O)N[C@@H](CCC(=O)O)C(=O)NC(C)(C)C(=O)N[C@@H](CCCNC(=N)N)C(=O)N[C@@H](CCCNC(=N)N)C(=O)N[C@@H](CO)C(=O)N[C@@H](C)C(=O)N[C@@H](CC(=O)O)C(=O)N[C@H](C(=O)N[C@@H](Cc1ccccc1)C(=O)N[C@H](C(N)=O)[C@@H](C)CC)[C@@H](C)CC)C(C)C)[C@@H](C)O` [Compound 60] (Palmitoyl-TVFRSSE[Aib]RRSADIFI-NH2; C-terminus assumed), for which, at APJ receptor, the EC50 came to 167 nM; the Ranking entry is “**** (EC50 101-500 nM and % histamine<35%)”; the percent intrinsic activity at 0.3 µM came out at 65%. In “Histimine (% vs. 48/40)”, the “Histimine (% vs. 48/40)” value is 26%.

In the case of `CCCCCCCCCCCCCCCC(=O)N[C@H](C(=O)N[C@H](C(=O)N[C@@H](Cc1ccccc1)C(=O)N[C@@H](CCCNC(=N)N)C(=O)N[C@@H](CO)C(=O)N[C@@H](CO)C(=O)N[C@@H](CCC(=O)O)C(=O)N[C@H](CCCCN)C(=O)NC(C)(C)C(=O)N[C@@H](CCCNC(=N)N)C(=O)N[C@@H](CO)C(=O)N[C@@H](C)C(=O)N[C@@H](CC(=O)O)C(=O)N[C@H](C(=O)N[C@@H](Cc1ccccc1)C(=O)N[C@H](C(N)=O)[C@@H](C)CC)[C@@H](C)CC)C(C)C)[C@@H](C)O` [Compound 61, TVFRSSEk(Aib)RSADIFI] (Palmitoyl-TVFRSSE[dK][Aib]RSADIFI-NH2; C-terminus assumed), on APJ receptor, the EC50 was 5210 nM and the percent intrinsic activity at 0.3 µM is 62%. The “Histimine (% vs. 48/40)” value in “Histimine (% vs. 48/40)” came out at 25%.

As for `CCCCCCCCCCCCCCCC(=O)N[C@H](C(=O)N[C@H](C(=O)N[C@@H](Cc1ccccc1)C(=O)N[C@@H](CCCNC(=N)N)C(=O)N[C@@H](CO)C(=O)N[C@@H](CO)C(=O)N[C@@H](CCC(=O)O)C(=O)N[C@H](CCCCN)C(=O)N[C@@H](CCCNC(=N)N)C(=O)NC(C)(C)C(=O)N[C@@H](CO)C(=O)N[C@@H](C)C(=O)N[C@@H](CC(=O)O)C(=O)N[C@H](C(=O)N[C@@H](Cc1ccccc1)C(=O)N[C@H](C(N)=O)[C@@H](C)CC)[C@@H](C)CC)C(C)C)[C@@H](C)O` [Compound 62, TVFRSSEkR(Aib)SADIFI] (Palmitoyl-TVFRSSE[dK]R[Aib]SADIFI-NH2), the percent intrinsic activity at 0.3 µM at APJ receptor amounted to 51%. Further, the “Histimine (% vs. 48/40)” value in “Histimine (% vs. 48/40)” was found to be 25%.

Regarding `CCCCCCCCCCCCCCCC(=O)N[C@H](C(=O)N[C@H](C(=O)N[C@@H](Cc1ccccc1)C(=O)N[C@@H](CCCNC(=N)N)C(=O)N[C@@H](CO)C(=O)N[C@@H](CO)C(=O)N[C@@H](CCC(=O)O)C(=O)N[C@H](CCCCN)C(=O)N[C@@H](CCCNC(=N)N)C(=O)N[C@@H](CCCNC(=N)N)C(=O)NC(C)(C)C(=O)N[C@@H](C)C(=O)N[C@@H](CC(=O)O)C(=O)N[C@H](C(=O)N[C@@H](Cc1ccccc1)C(=O)N[C@H](C(N)=O)[C@@H](C)CC)[C@@H](C)CC)C(C)C)[C@@H](C)O` [Compound 63, TVFRSSEkRR(Aib)ADIFI] (Palmitoyl-TVFRSSE[dK]RR[Aib]ADIFI-NH2), the percent intrinsic activity at 0.3 µM at APJ receptor is 61%. Also, the “Histimine (% vs. 48/40)” value in the series “Histimine (% vs. 48/40)” was 86%.

As to `CCCCCCCCCCCCCCCC(=O)N[C@H](C(=O)N[C@H](C(=O)N[C@@H](Cc1ccccc1)C(=O)N[C@@H](CCCNC(=N)N)C(=O)N[C@@H](CO)C(=O)N[C@@H](CO)C(=O)N[C@@H](CCC(=O)O)C(=O)N[C@H](CCCCN)C(=O)N[C@@H](CCCNC(=N)N)C(=O)N[C@@H](CCCNC(=N)N)C(=O)N[C@@H](CO)C(=O)NC(C)(C)C(=O)N[C@@H](CC(=O)O)C(=O)N[C@H](C(=O)N[C@@H](Cc1ccccc1)C(=O)N[C@H](C(N)=O)[C@@H](C)CC)[C@@H](C)CC)C(C)C)[C@@H](C)O` [Compound 64, TVFRSSEkRRS(Aib)DIFI] (Palmitoyl-TVFRSSE[dK]RRS[Aib]DIFI-NH2), the percent intrinsic activity at 0.3 µM at APJ receptor came out at 60%. Further, the “Histimine (% vs. 48/40)” value in “Histimine (% vs. 48/40)” is 105%.

Regarding `CCCCCCCCCCCCCCCC(=O)N[C@H](C(=O)N[C@H](C(=O)N[C@@H](Cc1ccccc1)C(=O)N[C@@H](CCCNC(=N)N)C(=O)N[C@@H](CO)C(=O)N[C@@H](CO)C(=O)N[C@@H](CCC(=O)O)C(=O)N[C@H](CCCCN)C(=O)N[C@@H](CCCNC(=N)N)C(=O)N[C@@H](CCCNC(=N)N)C(=O)N[C@@H](CO)C(=O)N[C@@H](C)C(=O)NC(C)(C)C(=O)N[C@H](C(=O)N[C@@H](Cc1ccccc1)C(=O)N[C@H](C(N)=O)[C@@H](C)CC)[C@@H](C)CC)C(C)C)[C@@H](C)O` [Compound 65, TVFRSSEkRRSA(Aib)IFI] (Palmitoyl-TVFRSSE[dK]RRSA[Aib]IFI-NH2), the percent intrinsic activity at 0.3 µM at APJ receptor is 45%. The “Histimine (% vs. 48/40)” value in “Histimine (% vs. 48/40)” was 100%.

Regarding `CCCCCCCCCCCCCCCC(=O)N[C@H](C(=O)N[C@H](C(=O)N[C@@H](Cc1ccccc1)C(=O)N[C@@H](CCCNC(=N)N)C(=O)N[C@@H](CO)C(=O)N[C@@H](CO)C(=O)N[C@@H](CCC(=O)O)C(=O)N[C@H](CCCCN)C(=O)N[C@@H](CCCNC(=N)N)C(=O)N[C@@H](CCCNC(=N)N)C(=O)N[C@@H](CO)C(=O)N[C@@H](C)C(=O)N[C@@H](CC(=O)O)C(=O)N[C@H](C(=O)NC(C)(C)C(=O)N[C@H](C(N)=O)[C@@H](C)CC)[C@@H](C)CC)C(C)C)[C@@H](C)O` [Compound 66] (Palmitoyl-TVFRSSE[dK]RRSADI[Aib]I-NH2; C-terminus assumed), at APJ receptor, the Ranking entry is “**** (EC50 101-500 nM and % histamine<35%)”; the percent intrinsic activity at 0.3 µM stood at 47%. The 50% effective concentration (EC50) on APJ receptor (inhibition of NKH477 stimulated cAMP, APJ-hTREX cells, read-out: APJ-hTREX EC50) worked out at 173 nM. In the series “Histimine (% vs. 48/40)”, the “Histimine (% vs. 48/40)” value was 19%.

Turning to `CCCCCCCCCCCCCCCC(=O)N[C@H](C(=O)N[C@H](C(=O)N[C@@H](Cc1ccccc1)C(=O)N[C@@H](CCCNC(=N)N)C(=O)N[C@@H](CO)C(=O)N[C@@H](CO)C(=O)N[C@@H](CCC(=O)O)C(=O)N[C@H](CCCCN)C(=O)N[C@@H](CCCNC(=N)N)C(=O)N[C@@H](CCCNC(=N)N)C(=O)N[C@@H](CO)C(=O)N[C@@H](C)C(=O)N[C@@H](CC(=O)O)C(=O)N[C@H](C(=O)N[C@@H](Cc1ccccc1)C(=O)NC(C)(C)C(N)=O)[C@@H](C)CC)C(C)C)[C@@H](C)O` [Compound 67, TVFRSSEkRRSADIF(Aib)] (Palmitoyl-TVFRSSE[dK]RRSADIF[Aib]-NH2), the percent intrinsic activity at 0.3 µM at APJ receptor was determined as 46%. The “Histimine (% vs. 48/40)” value in “Histimine (% vs. 48/40)” amounted to 50%.

As to `CCCCCCCCCCCCCCCC(=O)N[C@H](C(=O)NCC(=O)N[C@@H](Cc1ccccc1)C(=O)N[C@@H](CCCNC(=N)N)C(=O)N[C@@H](CO)C(=O)N[C@@H](CO)C(=O)N[C@@H](CCC(=O)O)C(=O)N[C@H](CCCCN)C(=O)N[C@@H](CCCNC(=N)N)C(=O)N[C@@H](CCCNC(=N)N)C(=O)N[C@@H](CO)C(=O)N[C@@H](C)C(=O)N[C@@H](CC(=O)O)C(=O)N[C@H](C(=O)N[C@@H](Cc1ccccc1)C(=O)N[C@H](C(N)=O)[C@@H](C)CC)[C@@H](C)CC)[C@@H](C)O` [Compound 69] (Palmitoyl-TGFRSSE[dK]RRSADIFI-NH2; C-terminus assumed), on APJ receptor, the EC50 came to 38.1 nM; the Ranking entry is “*** (EC50<100 nM and % histamine>35%)”; the percent intrinsic activity at 0.3 µM was determined as 77%. Also, the “Histimine (% vs. 48/40)” value in the series “Histimine (% vs. 48/40)” came out at 50%.

As to `CCCCCCCCCCCCCCCC(=O)N[C@H](C(=O)N[C@H](C(=O)N[C@@H](Cc1ccccc1)C(=O)NCC(=O)N[C@@H](CO)C(=O)N[C@@H](CO)C(=O)N[C@@H](CCC(=O)O)C(=O)N[C@H](CCCCN)C(=O)N[C@@H](CCCNC(=N)N)C(=O)N[C@@H](CCCNC(=N)N)C(=O)N[C@@H](CO)C(=O)N[C@@H](C)C(=O)N[C@@H](CC(=O)O)C(=O)N[C@H](C(=O)N[C@@H](Cc1ccccc1)C(=O)N[C@H](C(N)=O)[C@@H](C)CC)[C@@H](C)CC)C(C)C)[C@@H](C)O` [Compound 71] (Palmitoyl-TVFGSSE[dK]RRSADIFI-NH2; C-terminus assumed), at APJ receptor, the EC50 was determined as 111 nM; the Ranking entry was “**** (EC50 101-500 nM and % histamine<35%)”; the percent intrinsic activity at 0.3 µM worked out at 65%. Moreover, in “Histimine (% vs. 48/40)”, the “Histimine (% vs. 48/40)” value is on record as 6%.

What is called EC50 is the concentration needed to bring the measured effect to its halfway point.
